In patent publication US12421535B2, “Biochemically produced sandalwood oil” (FIRMENICH SA, priority 2019, dated 2025):

Assays:
ticks (Ixodes ricinus) = test: Tick repellency, adapted Warm Plate assay; assay type: in vivo
Experimental: The repellent effect was determined on ticks (Ixodes ricinus) using an adaptation of the Warm Plate assay as defined in Kröber T, Bourquin M, Guerin P M. A standardised in vivo and in vitro test method for evaluating tick repellents. Pesticide Biochemistry and Physiology. 2013; 107(2):160-168, adapted in reducing the size of the arena and adding a controlled temperature and humid air flow to the set-up.

NHDF = test: Anti-inflammatory test, cytokine release (ELISA), LPS-challenged fibroblasts; assay type: cell-based, human; conditions: LPS 0.5 ug/ml
Experimental: (§1) Monolayer cultures of Normal Human foreskin-derived Dermal Fibroblasts (NHDFs; ATCC, CRL-2522) were used for the anti-inflammatory study. The cells were grown in Dulbecco's Modified Eagle Medium (DMEM, Gibco/Life Technologies, 31885) supplemented with 10% of Foetal Bovine Serum (FBS, Gibco/Life Technologies, 10270) and antibiotics (penicillin/streptomycin, Gibco/Life Technologies, 15140). Monolayer cultures of Normal Human Epidermal Keratinocytes (NHEKs; Lonza, 00192906) were used for the anti-inflammatory study. The cells were grown in Epilife medium containing gentamycin and HKGS (Human Keratinocyte Growth Supplement).
(§2) The cells were maintained in a humidified incubator at 37° C. with a 5% CO2 atmosphere for the indicated treatment periods before performing metabolic, cytokine and gene expression assays.
(§3) Both NHEK and NHDF cell types were cultured in 24-well plates for 24 h in complete medium before being exposed to the test and reference items. Test compositions were applied on the cells 2 h before the 24 h-challenge with pro-inflammatory agents (see table below). Each sample was compared to solvent control conditions. At the end of treatment, all the supernatants were collected and stored at −20° C. until further use in specific ELISA assays for the quantification of the extracellular release of IL-8, IL-6, TNF-α, MCP-1 and CXCL5, based on a standard curve, according to the kits supplier's specifications.
(§4) Sandalwood oil of the invention was tested at 20 μg/ml on both keratinocytes and fibroblasts, in a comparison with S. album essential oil. Keratinocytes and fibroblasts were cultivated under conditions that stimulate the onset of inflammation. After induction of an inflammation state and test compounds application, cell culture supernatants were collected for further ELISA quantification. The ability of the ingredients in reducing the production of selected inflammation markers (MCP-1, CXCL5, IL-6, IL-8 and TNFalpha for NHEK only) was then measured by ELISA (Enzyme-Linked ImmunoSorbent Assay), a biochemical assay commonly used to quantify substances.

NHEK = test: Anti-inflammatory test, cytokine release (ELISA), keratinocytes challenged with TNFα or PMA + A23187; assay type: cell-based, human; conditions: for IL-6 % Reduction (vs A23187/EtOH) / IL-6 % Stimulation (vs Untreated) / IL-8 % Reduction (vs PMA + A23187/EtOH) / IL-8 % Stimulation (vs Untreated) / TNFα % Reduction (vs PMA + A23187/EtOH) / TNFα % Stimulation (vs Untreated): PMA 10 ng/ml + A23187 2 uM; for CXCL-5 % Reduction (vs TNFa/EtOH) / CXCL-5 % Stimulation (vs Untreated) / MCP-1 % Reduction (vs TNFa/EtOH) / MCP-1 % Stimulation (vs Untreated): TNFa 50 ng/ml
Experimental: as §1, §2, §3, §4

[1] = test system: Reconstructed Human Epidermis (RHE) mimicking sensitive skin; test: Protein expression (immuno-fluorescence) in RHE model mimicking sensitive skin; assay type: cell-based; conditions: Cytokine Mix + solvent, 10 uM, 48 h, untreated = 100
Experimental: Human epidermis was reconstituted in vitro as described previously. […] Sandalwood oil of the invention was diluted at 20 μg/ml and 40 μg/ml in culture medium and added together with the cytokine cocktail during the same 48 h. The reference compound GW3965 (10 μM), a synthetic nonsteroidal liver X receptor (LXR) agonist was applied in the culture medium for 48 h as well. Protein levels of loricrin, involucrin and HAS3 were quantified at the end of the treatments by immuno-fluorescence. One section of each sample was dewaxed and rehydrated and the slides were incubated in the presence of the primary antibody specific for each of the 3 target proteins. Fluorescein-conjugated secondary antibodies were then used to detect the primary antibodies. DAPI Slowfade Diamond was used to detect the nuclei of the cells.

NHEKs keratinocytes = test: Cytotoxicity MTS assay, NHEKs under PMA/calcium ionophore or TNF-α challenge; assay type: cell-based, human; conditions: SDS 0.008%, 26 h
Experimental: (§5) A preliminary study was performed in order to determine the non-cytotoxic working concentrations for both the sandalwood oil of the invention and a reference sandalwood oil. The cell viability was evaluated using the standard MTS assay (3-(4,5-dimethythiazol-2-yl)-5-(3-carboxy-methoxyphenyl)-2-(4-sulfophenyl)-2H-tetrazolium) after treatment with the test ingredients (160-80-40-20-10 μg/ml, tested in triplicate).
(§6) The test was performed both under basal conditions (i.e. without pro-inflammatory challenge) and pro-inflammatory stimuli for either 24 h-72 h or 26 h, respectively. Cells were seeded in 24-wells plates with complete medium, 24 h before treatment.
(§7) Test ingredients were solubilized in solvent (DMSO or ethanol) and applied to the culture medium of cells 2 hours prior to the pro-inflammatory challenge (when required). SDS at 0.008% or 0.08% was used as cytotoxicity positive control to validate the experiment on NHEKs keratinocytes or NHDFs fibroblasts, respectively.
(§8) In order to ensure experiments would be carried out with test composition concentrations that are non-cytotoxic, a cytotoxicity study was performed on NHEK and NHDF after 26 h of treatment (2 h alone and 24 h under inflammatory challenge with LPS for NHDFs fibroblasts and PMA/calcium ionophore or TNF-α for NHEKs). […]

NHDFs fibroblasts = test: Cytotoxicity MTS assay, NHDFs under LPS challenge; assay type: cell-based, human; conditions: SDS 0.08%, 26 h
Experimental: as §5, §6, §7, §8

[2] = test system: Reconstructed Human Epidermis (RHE); test: Permeability of Reconstructed Human Epidermis, biotin diffusion; assay type: cell-based

CCN(CC)C(=O)c1cccc(C)c1 [DEET, N,N-diethyl-meta-toluamide]
% of affected ticks (ticks (Ixodes ricinus); 0.016 mg/mL): 11%
% of affected ticks (ticks (Ixodes ricinus); 0.4 mg/mL): 20%
% of affected ticks (ticks (Ixodes ricinus); 10 mg/mL): 81%

C[C@@H]1C[C@H]2[C@@H]3CCC4=CC(=O)C=C[C@]4(C)[C@@]3(F)[C@@H](O)C[C@]2(C)[C@@]1(O)C(=O)CO [Dexamethasone]
CXCL-5 % Reduction (vs LPS/EtOH) (NHDF; 10 uM): 77%
CXCL-5 % Stimulation (vs Untreated) (NHDF; 10 uM): 6414%
IL-6 % Reduction (vs LPS/EtOH) (NHDF; 10 uM): −70%
IL-6 % Stimulation (vs Untreated) (NHDF; 10 uM): 6606%
IL-8 % Reduction (vs LPS/EtOH) (NHDF; 10 uM): −39%
IL-8 % Stimulation (vs Untreated) (NHDF; 10 uM): 7738%
MCP-1 % Reduction (vs LPS/EtOH) (NHDF; 10 uM): −23%
MCP-1 % Stimulation (vs Untreated) (NHDF; 10 uM): 1067%
IL-6 % Reduction (vs A23187/EtOH) (NHEK; 10 uM): −55%
IL-6 % Stimulation (vs Untreated) (NHEK; 10 uM): 275%
IL-8 % Reduction (vs PMA + A23187/EtOH) (NHEK; 10 uM): −25%
IL-8 % Stimulation (vs Untreated) (NHEK; 10 uM): 14801%
TNFα % Reduction (vs PMA + A23187/EtOH) (NHEK; 10 uM): −57%
TNFα % Stimulation (vs Untreated) (NHEK; 10 uM): 33869%
CXCL-5 % Reduction (vs TNFa/EtOH) (NHEK; 10 uM): 251%
CXCL-5 % Stimulation (vs Untreated) (NHEK; 10 uM): 1525%
MCP-1 % Reduction (vs TNFa/EtOH) (NHEK; 10 uM): −53%
MCP-1 % Stimulation (vs Untreated) (NHEK; 10 uM): 1432%

O=C(O)Cc1cccc(OCCCN(Cc2cccc(C(F)(F)F)c2Cl)CC(c2ccccc2)c2ccccc2)c1 [GW3965]
Hyaluronan synthase 3 (HAS 3) RQ [1]: 106
Involucrin (IVL) RQ [1]: 160

CCCCN(CCC(=O)OCC)C(C)=O [IR3535, Ethyl butylacetylaminopropionate]
% of affected ticks (ticks (Ixodes ricinus); 0.016 mg/mL): 0%
% of affected ticks (ticks (Ixodes ricinus); 0.4 mg/mL): 33%
% of affected ticks (ticks (Ixodes ricinus); 10 mg/mL): 56%

CC(C)Cc1ccc(C(C)C(=O)O)cc1 (centres unmarked) [Ibuprofen]
CXCL-5 % Reduction (vs LPS/EtOH) (NHDF; 100 uM): −19%
CXCL-5 % Stimulation (vs Untreated) (NHDF; 100 uM): 2929%
IL-6 % Reduction (vs LPS/EtOH) (NHDF; 100 uM): −24%
IL-6 % Stimulation (vs Untreated) (NHDF; 100 uM): 16853%
IL-8 % Reduction (vs LPS/EtOH) (NHDF; 100 uM): −14%
IL-8 % Stimulation (vs Untreated) (NHDF; 100 uM): 11037%
MCP-1 % Reduction (vs LPS/EtOH) (NHDF; 100 uM): −4%
MCP-1 % Stimulation (vs Untreated) (NHDF; 100 uM): 1342%
CXCL-5 % Reduction (vs LPS/EtOH) (NHDF; 500 uM): −39%
CXCL-5 % Stimulation (vs Untreated) (NHDF; 500 uM): 2216%
IL-6 % Reduction (vs LPS/EtOH) (NHDF; 500 uM): −46%
IL-6 % Stimulation (vs Untreated) (NHDF; 500 uM): 11977%
IL-8 % Reduction (vs LPS/EtOH) (NHDF; 500 uM): −36%
IL-8 % Stimulation (vs Untreated) (NHDF; 500 uM): 8242%
MCP-1 % Reduction (vs LPS/EtOH) (NHDF; 500 uM): −32%
MCP-1 % Stimulation (vs Untreated) (NHDF; 500 uM): 950%
IL-6 % Reduction (vs A23187/EtOH) (NHEK; 100 uM): −24%
IL-6 % Stimulation (vs Untreated) (NHEK; 100 uM): 462%
IL-8 % Reduction (vs PMA + A23187/EtOH) (NHEK; 100 uM): −19%
IL-8 % Stimulation (vs Untreated) (NHEK; 100 uM): 16034%
TNFα % Reduction (vs PMA + A23187/EtOH) (NHEK; 100 uM): −29%
TNFα % Stimulation (vs Untreated) (NHEK; 100 uM): 55645%
IL-6 % Reduction (vs A23187/EtOH) (NHEK; 500 uM): −67%
IL-6 % Stimulation (vs Untreated) (NHEK; 500 uM): 202%
IL-8 % Reduction (vs PMA + A23187/EtOH) (NHEK; 500 uM): −39%
IL-8 % Stimulation (vs Untreated) (NHEK; 500 uM): 12190%
TNFα % Reduction (vs PMA + A23187/EtOH) (NHEK; 500 uM): −85%
TNFα % Stimulation (vs Untreated) (NHEK; 500 uM): 12099%
secretion levels of mediators of inflammation (NHEK; PMA + A23187 or TNF-α, dexamethasone with the exception of CXCL-5): reduced significantly
CXCL-5 % Reduction (vs TNFa/EtOH) (NHEK; 100 uM): −22%
CXCL-5 % Stimulation (vs Untreated) (NHEK; 100 uM): 337%
MCP-1 % Reduction (vs TNFa/EtOH) (NHEK; 100 uM): −18%
MCP-1 % Stimulation (vs Untreated) (NHEK; 100 uM): 2471%
CXCL-5 % Reduction (vs TNFa/EtOH) (NHEK; 500 uM): −47%
CXCL-5 % Stimulation (vs Untreated) (NHEK; 500 uM): 229%
MCP-1 % Reduction (vs TNFa/EtOH) (NHEK; 500 uM): −63%
MCP-1 % Stimulation (vs Untreated) (NHEK; 500 uM): 1126%

CCC(C)OC(=O)N1CCCCC1CCO (centres unmarked) [Picaridin, sec-butyl 2-(2-hydroxyethyl)piperidine-1-carboxylate]
% of affected ticks (ticks (Ixodes ricinus); 0.016 mg/mL): 8%
% of affected ticks (ticks (Ixodes ricinus); 0.4 mg/mL): 50%
% of affected ticks (ticks (Ixodes ricinus); 10 mg/mL): 92%

CCCCCCCCCCCCOS(=O)(=O)[O-].[Na+] [SDS]
cell viability (NHEKs keratinocytes): strong decrease in cell viability
cell viability (NHDFs fibroblasts): strong decrease in cell viability
Surface stained*mean intensity/surface area ([2]; 48 h, SDS 0.005%): 103
biotin abundance (% relative to untreated) ([2]; 48 h, SDS 0.005%, versus untreated): 614%
barrier function of epidermis ([2]; SDS at 0.005%, compared to untreated control): reduced the barrier function
